Results on one molecule are retold here after patent publication US20120157547A1, “COMPOSITIONS AND APPLICATIONS OF CAROTENOIDS OF IMPROVED ABSORPTION AND BIOAVAILABILITY” (priority 2010, published 2012).

“And” between values parts separate entries of the source, which are not always exact repeats. Identical values can stand only once.

Series [1] can be described thus: Serum Lutein concentration by HPLC during 24 weeks of daily capsule ingestion (bioavailability evaluation). Type of series: in vivo. Here is the method:
The evaluation was carried out over a period of 24 weeks with three (3) groups of subjects that ingested daily one gelatin capsule containing the following: • The first group ingested a capsule containing a dispersion of 20 mg of Micro-Mic™ in vegetable oil. • The second group ingested a gelatin capsule containing a dispersion of 20 mg of commercial crystalline Lutein dispersed in vegetable oil. • The third group ingested a gelatin capsule containing only vegetable oil (placebo). The three gelatin capsules were all the same color (dark brown). Blood samples were collected weekly and the serum analyzed for Lutein by HPLC, and the concentration was reported as (ng/ul) of Lutein The results obtained are shown for Baseline date, week 6th, week 12^t1, week 18th, and week 24th. The ratio between the concentrations at each week was divided by the Baseline concentration. The average of those ratios is reported at the base of each column.

Series [2] in a line: Rate of increase in MPOD (Macular Pigment Optical Density) during 24 weeks of daily capsule ingestion. Type of series: in vivo. As to conditions: 20 mg daily capsule. On the procedure: The evaluation was carried out over a period of 24 weeks with three (3) groups of subjects that ingested daily one gelatin capsule containing the following: • The first group ingested a capsule containing a dispersion of 20 mg of Micro-Mic™ in vegetable oil. • The second group ingested a gelatin capsule containing a dispersion of 20 mg of commercial crystalline Lutein dispersed in vegetable oil. • The third group ingested a gelatin capsule containing only vegetable oil (placebo). The three gelatin capsules were all the same color (dark brown).
Rate of Increase in MPOD in Absorbance Units Per Week
The serum results are a better indicator of bioavailability than the macular pigment results. It is well established that some subjects are serum responders, but macular pigment non-responders. However in this evaluation the Micro-Mic™ group mean MPOD (Macular Pigment Optical Density) exceeds that of the crystalline Lutein subjects by approximately 14%.

Take `CC1=C[C@H](O)CC(C)(C)[C@H]1/C=C/C(C)=C/C=C/C(C)=C/C=C/C=C(C)/C=C/C=C(C)/C=C/C1=C(C)C[C@@H](O)CC1(C)C` [Lutein]: in series [1] (average of the subjects' ratios, week 6), the “Week 6/Baseline, group average” value was 4.964. Moreover, the “Week 12/Baseline, group average” value in series [1] (average of the subjects' ratios, week 12) came to 4.492. Further, the “Week 18/Baseline, group average” value in series [1] (average of the subjects' ratios, week 18) was determined as 4.345. Further, the “Week 24/Baseline, group average” value in series [1] (average of the subjects' ratios, week 24) was found to be 3.931. Besides, in series [1] (average of the subjects' ratios, weeks 6-24), the “Week 6-24/Baseline, group average” value came to 4.433. The concentration at 6 weeks in series [1] (human, serum, oral, 20 mg, serum, group average, week 6, 20 mg daily capsule in vegetable oil, read-out: Week 6 Lutein Conc. B, group average) turned out to be 0.632 µg/mL. In addition, the concentration at 12 weeks in series [1] (human, serum, oral, 20 mg, serum, group average, week 12, 20 mg daily capsule in vegetable oil, read-out: Week 12 Lutein Conc. C, group average) worked out at 0.577 µg/mL. Also, the concentration at 18 weeks in series [1] (human, serum, oral, 20 mg, serum, group average, week 18, 20 mg daily capsule in vegetable oil, read-out: Week 18 Lutein Conc. D, group average) was determined as 0.545 µg/mL. Moreover, the concentration at 24 weeks in series [1] (human, serum, oral, 20 mg, serum, group average, week 24, 20 mg daily capsule in vegetable oil, read-out: Week 24 Lutein Conc. E, group average) was determined as 0.458 µg/mL. In series [1] (ratio of serum Lutein conc., individual subject, week 6), the “Week 6/Baseline” value was 3.934 and 4.235 and 3.335 and 4.201 and 5.425 and 2.914 and 8.047 and 8.611 and 2.624 and 6.314. The “Week 12/Baseline” value in series [1] (ratio of serum Lutein conc., individual subject, week 12) is 4.398 and 3.871 and 2.494 and 5.926 and 5.242 and 4.491 and 3.439 and 5.491 and 3.867 and 5.704. The “Week 18/Baseline” value in series [1] (ratio of serum Lutein conc., individual subject, week 18) was 3.608 and 2.273 and 2.296 and 4.321 and 11.494 and 2.395 and 3.171 and 7.268 and 2.283 and 4.335. The “Week 24/Baseline” value in series [1] (ratio of serum Lutein conc., individual subject, week 24) was 2.721 and 1.327 and 1.910 and 8.589 and 4.965 and 2.051 and 2.296 and 5.931 and 4.958 and 4.563. For the same molecule, in series [1] (ratio of serum Lutein conc., individual subject, weeks 6-24), the “Week 6-24/Baseline” value is 3.665 and 2.927 and 2.509 and 5.759 and 6.782 and 2.963 and 4.238 and 6.825 and 3.433 and 5.229. Moreover, the “Baseline Lutein Conc. A, group average” value in series [1] (serum, group average, baseline, group later given 20 mg daily capsule) is 0.128 ng/µL. In series [1] (serum, individual subject, baseline, group later given 20 mg daily capsule), the “Baseline Lutein Conc. A” value was 0.268 ng/ul and 0.108 ng/ul (3×) and 0.112 ng/ul and 0.063 ng/ul and 0.151 ng/ul and 0.119 ng/ul and 0.082 ng/ul and 0.164 ng/ul. In series [1] (serum, individual subject, week 6, 20 mg daily capsule in vegetable oil), the “Week 6 Lutein Conc. B” value was 1.054 ng/µL and 0.457 ng/µL and 0.372 ng/µL and 0.265 ng/µL and 0.584 ng/µL and 0.439 ng/µL and 0.867 ng/µL and 1.028 ng/µL and 0.215 ng/µL and 1.035 ng/µL. Also, the “Week 12 Lutein Conc. C” value in series [1] (serum, individual subject, week 12, 20 mg daily capsule in vegetable oil) was 1.179 ng/µL and 0.418 ng/µL and 0.278 ng/µL and 0.373 ng/µL and 0.564 ng/µL and 0.677 ng/µL and 0.370 ng/µL and 0.655 ng/µL and 0.317 ng/µL and 0.935 ng/µL. The “Week 18 Lutein Conc. D” value in series [1] (serum, individual subject, week 18, 20 mg daily capsule in vegetable oil) was 0.967 ng/µL and 0.246 ng/µL and 0.256 ng/µL and 0.272 ng/µL and 1.238 ng/µL and 0.361 ng/µL and 0.341 ng/µL and 0.867 ng/µL and 0.187 ng/µL and 0.711 ng/µL. The “Week 24 Lutein Conc. E” value in series [1] (serum, individual subject, week 24, 20 mg daily capsule in vegetable oil) was 0.729 ng/µL and 0.143 ng/µL and 0.213 ng/µL and 0.541 ng/µL and 0.535 ng/µL and 0.309 ng/µL and 0.247 ng/µL and 0.708 ng/µL and 0.407 ng/µL and 0.748 ng/µL. Also, in series [2] (group maximum), the “Rate of Increase in MPOD, Max” value stood at 5.100E−03 Absorbance Units Per Week. Also, the “Rate of Increase in MPOD, Mean” value in series [2] (group mean) stood at 1.690E−03 Absorbance Units Per Week. Further, in series [2] (group median), the “Rate of Increase in MPOD, Median” value is reported as 1.550E−03 Absorbance Units Per Week. Besides, the “Rate of Increase in MPOD, Min” value in series [2] (group minimum) is reported as −8.000E−04 Absorbance Units Per Week.
